Patent US11273145B2, “Compositions and methods for the treatment of acid-related gastrointestinal disorders containing a dithiolane compound and a gastric acid secretion inhibitor” (priority 2014, dated 2022)

Assays:
GERD symptoms = assay: Example 1: subject diagnosed with GERD, self-reported relief on omeprazole alone vs omeprazole plus ALA; assay type: in vivo, human; details: scale of 1-10; 40 mg of omeprazole per day
Method: A middle aged subject diagnosed with GERD had been on the proton pump inhibitor omeprazole for approximately three years. The subject reported taking 40 mg of omeprazole per day to control symptoms of GERD. On a scale of 1-10, subject rated the effectiveness of omeprazole at 5. […] In accordance with the present disclosure, they began taking orally 20 mg of omeprazole and 400 mg of ALA on a daily basis. […] Subject rated effectives of regime of the present disclosure a 9 on a scale from 1-10. […] Additional study was undertaken to see to what extent the combination of proton pump inhibitor and ALA of the present disclosure would have on GERD and heartburn symptoms. The person was instructed to orally take 20 mg of omeprazole and 600 mg of ALA daily for 3 months. […] Other important facts were gathered from this 3-month study. The treatment regime is fast acting and generally will halt the symptoms of even the worst scenario of acid reflux in no more than 120 minutes. Continued relief is experienced for a minimum of 24 hours with no further oral intake of the combination regime. The participant reported eating regular foods with no more modified diet schemes. Foods such as pizza, spaghetti, chili, ice cream, pastrami, taco […] like, all once avoided, are now capable of being enjoyed at meal times.

heartburn and GERD = assay: Conclusions on the use of the combination regimes; assay type: in vivo, human; details: Omeprazole alone
[1] = tested on: intracellular glutathione (GSH); details: variety of cell types and tissues; cited from earlier work
cell monolayer = details: Transwell model; cited from earlier work
[2] = molecular target: T1, Na+-dependent multivitamin transporter (Homo sapiens, UniProt Q9Y289); details: in vitro; cited from earlier work
T1 sequence (Q9Y289 1-635): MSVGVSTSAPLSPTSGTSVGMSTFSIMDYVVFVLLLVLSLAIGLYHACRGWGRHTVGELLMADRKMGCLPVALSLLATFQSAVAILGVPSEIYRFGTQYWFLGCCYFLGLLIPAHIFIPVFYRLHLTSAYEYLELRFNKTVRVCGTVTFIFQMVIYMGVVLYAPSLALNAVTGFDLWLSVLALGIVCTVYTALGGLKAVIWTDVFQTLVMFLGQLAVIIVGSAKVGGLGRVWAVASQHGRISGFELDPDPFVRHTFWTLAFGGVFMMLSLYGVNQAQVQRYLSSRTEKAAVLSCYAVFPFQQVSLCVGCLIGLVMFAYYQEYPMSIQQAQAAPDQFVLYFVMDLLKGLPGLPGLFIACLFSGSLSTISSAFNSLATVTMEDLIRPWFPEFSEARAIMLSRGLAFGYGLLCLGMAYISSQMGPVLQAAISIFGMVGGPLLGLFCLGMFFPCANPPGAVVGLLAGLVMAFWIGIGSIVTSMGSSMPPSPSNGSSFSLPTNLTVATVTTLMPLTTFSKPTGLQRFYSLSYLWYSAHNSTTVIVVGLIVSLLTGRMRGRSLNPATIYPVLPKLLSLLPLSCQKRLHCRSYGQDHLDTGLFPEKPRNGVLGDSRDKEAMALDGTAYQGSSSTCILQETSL

| SMILES | effectiveness rating by subject (GERD symptoms) | time to elimination of GERD symptoms, on the average (heartburn and GERD) [days] | effect on intracellular glutathione (GSH) [1] | transport across cell monolayer (cell monolayer) | transporter substrate status [2] |
| --- | --- | --- | --- | --- | --- |
| COc1ccc2[nH]c([S+]([O-])Cc3ncc(C)c(OC)c3C)nc2c1 (centres unmarked) [omeprazole] | 5 | 2 |  |  |  |
| O=C(O)CCCCC1CCSS1 (stereo not drawn) [ALA, Alpha-Lipoic Acid] |  |  | markedly increases | rapidly traverses the cell monolayer in a pH-dependent manner | substrate |
